Organism: Rattus norvegicus
Test: DrugMatrix - Regimen: Daily Repeat
Format: toxicity, organism-based, Sprague-Dawley
Design: regimen Daily Repeat, gender Male, age 6-8 weeks
Details: in vivo, po, route oral GAVAGE, vehicle 100 % SALINE; for ABSOLUTE BASOPHIL / ABSOLUTE EOSINOPHIL / ABSOLUTE LYMPHOCYTE / ABSOLUTE MONOCYTE / ABSOLUTE SEGMENTED NEUTROPHIL / BASOPHIL / EOSINOPHIL / ERYTHROCYTE COUNT / HEMATOCRIT / HEMOGLOBIN / LEUKOCYTE COUNT / LYMPHOCYTE / MEAN CORPUSCULAR HEMOGLOBIN / MEAN CORPUSCULAR HEMOGLOBIN CONCENTRATION / MEAN CORPUSCULAR VOLUME / MONOCYTE / NEUTROPHIL / NUCLEATED RED BLOOD CELLS / PLATELET COUNT: tissue Blood; for ALANINE AMINOTRANSFERASE / ALBUMIN / ALKALINE PHOSPHATASE / ASPARTATE AMINOTRANSFERASE / BLOOD UREA NITROGEN / CARBON DIOXIDE / CHLORIDE / CHOLESTEROL / CREATINE PHOSPHOKINASE / CREATININE / GLUCOSE / LACTATE DEHYDROGENASE / LIPASE / PHOSPHORUS / POTASSIUM / SODIUM / TOTAL BILIRUBIN / TOTAL PROTEIN / URIC ACID: tissue Plasma
[1] = 46 mg/kg, 120 h, dose level Low, time 5 day
[2] = 360 mg/kg, 72 h, dose level High, time 3 day
[3] = 360 mg/kg, 120 h, dose level High, time 5 day

With `COc1ccc2cc(CC(=O)O)ccc2c1` the “ABSOLUTE BASOPHIL” value [1] was 0 CELLS/uL, the “ABSOLUTE EOSINOPHIL” value [1] was 93.33 CELLS/uL and the “ABSOLUTE LYMPHOCYTE” value [1] was 9837 CELLS/uL. For the same compound, the “ABSOLUTE MONOCYTE” value [1] was 271.67 CELLS/uL, the “ABSOLUTE SEGMENTED NEUTROPHIL” value [1] was 1398 CELLS/uL and the BASOPHIL [1] was 0%. For the same compound, the EOSINOPHIL [1] was 0.67%, the “ERYTHROCYTE COUNT” value [1] was 5.65 x10E6/uL and the HEMATOCRIT [1] was 35.2%. For the same compound, the HEMOGLOBIN [1] was 13.83 G/DL, the “LEUKOCYTE COUNT” value [1] was 11.6 x10E3/uL and the LYMPHOCYTE [1] was 86%. The “MEAN CORPUSCULAR HEMOGLOBIN” value [1] was 24.5 pg, the “MEAN CORPUSCULAR HEMOGLOBIN CONCENTRATION” value [1] was 39.33 G/DL and the “MEAN CORPUSCULAR VOLUME” value [1] was 62.23 fL. For the same compound, the MONOCYTE [1] was 2.33%, the NEUTROPHIL [1] was 11% and the “NUCLEATED RED BLOOD CELLS” value [1] was 0 /100WBC. The “PLATELET COUNT” value [1] was 1138.33 x10E3/uL, the “ALANINE AMINOTRANSFERASE” value [1] was 39.67 u/L and the ALBUMIN [1] was 3.93 G/DL. The “ALKALINE PHOSPHATASE” value [1] was 339 u/L, the “ASPARTATE AMINOTRANSFERASE” value [1] was 71 u/L and the “BLOOD UREA NITROGEN” value [1] was 16.67 mg/dL. For the same compound, the “CARBON DIOXIDE” value [1] was 37.33 mmol/L, the CHLORIDE [1] was 100 MEQ/L and the CHOLESTEROL [1] was 65.67 mg/dL. For the same compound, the “CREATINE PHOSPHOKINASE” value [1] was 168 u/L, the CREATININE [1] was 0.25 mg/dL and the GLUCOSE [1] was 144.33 mg/dL. For the same compound, the “LACTATE DEHYDROGENASE” value [1] was 125.67 u/L, the LIPASE [1] was 9.33 u/L and the PHOSPHORUS [1] was 9.93 mg/dL. For the same compound, the POTASSIUM [1] was 6.48 MEQ/L, the SODIUM [1] was 142.9 MEQ/L and the “TOTAL BILIRUBIN” value [1] was 0.2 mg/dL. For the same compound, the “TOTAL PROTEIN” value [1] was 5.57 G/DL, the “URIC ACID” value [1] was 1.23 mg/dL and the “ABSOLUTE BASOPHIL” value [2] was 0 CELLS/uL. For the same compound, the “ABSOLUTE EOSINOPHIL” value [2] was 13.33 CELLS/uL, the “ABSOLUTE LYMPHOCYTE” value [2] was 7596.67 CELLS/uL and the “ABSOLUTE MONOCYTE” value [2] was 249.33 CELLS/uL. The “ABSOLUTE SEGMENTED NEUTROPHIL” value [2] was 2774 CELLS/uL, the BASOPHIL [2] was 0% and the EOSINOPHIL [2] was 0.33%. The “ERYTHROCYTE COUNT” value [2] was 3.71 x10E6/uL, the HEMATOCRIT [2] was 23.17% and the HEMOGLOBIN [2] was 9.43 G/DL. For the same compound, the “LEUKOCYTE COUNT” value [2] was 10.63 x10E3/uL, the LYMPHOCYTE [2] was 66.67% and the “MEAN CORPUSCULAR HEMOGLOBIN” value [2] was 25.93 pg. For the same compound, the “MEAN CORPUSCULAR HEMOGLOBIN CONCENTRATION” value [2] was 41.23 G/DL, the “MEAN CORPUSCULAR VOLUME” value [2] was 62.9 fL and the MONOCYTE [2] was 1.67%. The NEUTROPHIL [2] was 31.33%, the “NUCLEATED RED BLOOD CELLS” value [2] was 1.67 /100WBC and the “PLATELET COUNT” value [2] was 943 x10E3/uL. The “ALANINE AMINOTRANSFERASE” value [2] was 45.33 u/L, the ALBUMIN [2] was 2.4 G/DL and the “ALKALINE PHOSPHATASE” value [2] was 253 u/L. For the same compound, the “ASPARTATE AMINOTRANSFERASE” value [2] was 212.33 u/L, the “BLOOD UREA NITROGEN” value [2] was 22.33 mg/dL and the “CARBON DIOXIDE” value [2] was 20.33 mmol/L. For the same compound, the CHLORIDE [2] was 99.67 MEQ/L, the CHOLESTEROL [2] was 66.67 mg/dL and the “CREATINE PHOSPHOKINASE” value [2] was 1447.67 u/L. For the same compound, the CREATININE [2] was 0.17 mg/dL, the GLUCOSE [2] was 135.67 mg/dL and the “LACTATE DEHYDROGENASE” value [2] was 735.67 u/L. It also gave an LIPASE [2] of 8.67 u/L, a PHOSPHORUS [2] of 17 mg/dL and a POTASSIUM [2] of 8 MEQ/L. For the same compound, the SODIUM [2] was 141 MEQ/L, the “TOTAL BILIRUBIN” value [2] was 0.17 mg/dL and the “TOTAL PROTEIN” value [2] was 5.13 G/DL. For the same compound, the “URIC ACID” value [2] was 3.87 mg/dL, the “ABSOLUTE BASOPHIL” value [3] was 0 CELLS/uL and the “ABSOLUTE EOSINOPHIL” value [3] was 0 CELLS/uL. The “ABSOLUTE LYMPHOCYTE” value [3] was 14145 CELLS/uL, the “ABSOLUTE MONOCYTE” value [3] was 225 CELLS/uL and the “ABSOLUTE SEGMENTED NEUTROPHIL” value [3] was 8130 CELLS/uL. The BASOPHIL [3] was 0%, the EOSINOPHIL [3] was 0% and the “ERYTHROCYTE COUNT” value [3] was 4.19 x10E6/uL. The HEMATOCRIT [3] was 26.25%, the HEMOGLOBIN [3] was 10.55 G/DL and the “LEUKOCYTE COUNT” value [3] was 22.5 x10E3/uL. The LYMPHOCYTE [3] was 62%, the “MEAN CORPUSCULAR HEMOGLOBIN” value [3] was 25.2 pg and the “MEAN CORPUSCULAR HEMOGLOBIN CONCENTRATION” value [3] was 40.2 G/DL. The “MEAN CORPUSCULAR VOLUME” value [3] was 62.7 fL, the MONOCYTE [3] was 1% and the NEUTROPHIL [3] was 37%. The “NUCLEATED RED BLOOD CELLS” value [3] was 0 /100WBC, the “PLATELET COUNT” value [3] was 2123.5 x10E3/uL and the “ALANINE AMINOTRANSFERASE” value [3] was 16.5 u/L. For the same compound, the ALBUMIN [3] was 2.7 G/DL, the “ALKALINE PHOSPHATASE” value [3] was 153.5 u/L and the “ASPARTATE AMINOTRANSFERASE” value [3] was 50 u/L. The “BLOOD UREA NITROGEN” value [3] was 14 mg/dL, the “CARBON DIOXIDE” value [3] was 28 mmol/L and the CHLORIDE [3] was 103 MEQ/L. The CHOLESTEROL [3] was 71.5 mg/dL, the “CREATINE PHOSPHOKINASE” value [3] was 441 u/L and the CREATININE [3] was 0.14 mg/dL. For the same compound, the GLUCOSE [3] was 156.5 mg/dL, the “LACTATE DEHYDROGENASE” value [3] was 371.5 u/L and the LIPASE [3] was 8 u/L. The PHOSPHORUS [3] was 10.3 mg/dL, the POTASSIUM [3] was 5.81 MEQ/L and the SODIUM [3] was 139.25 MEQ/L. The “TOTAL BILIRUBIN” value [3] was 0.1 mg/dL, the “TOTAL PROTEIN” value [3] was 4.85 G/DL and the “URIC ACID” value [3] was 2.15 mg/dL.

— ChEMBL document CHEMBL3885881, “DrugMatrix”
